Assay results taken from paper PMC2248166, “Quantitative peptide binding motifs for 19 human and mouse MHC class I molecules derived using positional scanning combinatorial peptide libraries” (Immunome Research, 2008).
Where a SMILES comes first, the peptide text is derived from it.

Target: HLA B*0801 (Homo sapiens, UniProt P01889, A93T/A95T/D138N/E176V/E187T/K202T/Q94N/R180D/S35A/V36M/Y33D/Y91F)
Test: biochemical
Assay type: binding

SMILES | IC50
CC[C@H](C)[C@H](NC(=O)[C@H](CCCNC(=N)N)NC(=O)[C@@H](NC(=O)[C@H](CCCCN)NC(=O)[C@H](CC(C)C)NC(=O)[C@@H](N)CCCNC(=N)N)[C@@H](C)O)C(=O)N[C@@H](CCCNC(=N)N)C(=O)N[C@@H](CC(N)=O)C(=O)N[C@@H](CC(C)C)C(=O)O [3102.0740] (H-RLKTRIRNL-OH) | 0.69 nM
CC[C@H](C)[C@H](NC(=O)[C@H](CCCNC(=N)N)NC(=O)[C@@H](NC(=O)[C@H](CCCCN)NC(=O)[C@H](CCCCN)NC(=O)[C@@H](N)CO)[C@@H](C)O)C(=O)N[C@@H](CO)C(=O)N[C@@H](CC(=O)O)C(=O)N[C@@H](CC(C)C)C(=O)O [3102.0741] (H-SKKTRISDL-OH) | 2.8 nM
CC(C)C[C@H](NC(=O)[C@H](CCC(=O)O)NC(=O)[C@@H](NC(=O)[C@H](CC(C)C)NC(=O)[C@H](CCCCN)NC(=O)[C@H](CCCNC(=N)N)NC(=O)[C@H](CCCCN)NC(=O)[C@H](C)NC(=O)[C@@H](N)CCC(=O)O)[C@@H](C)O)C(=O)O [3102.0742] (H-EAKRKLTEL-OH) | 2.5 nM
CC[C@H](C)[C@H](NC(=O)[C@H](CCCNC(=N)N)NC(=O)[C@H](CO)NC(=O)[C@H](CCCNC(=N)N)NC(=O)[C@H](CC(C)C)NC(=O)[C@H](C)N)C(=O)N[C@@H](CCCNC(=N)N)C(=O)N[C@@H](CCC(=O)O)C(=O)N[C@@H](CC(C)C)C(=O)O [3102.0743] (H-ALRSRIREL-OH) | 0.46 nM
CSCC[C@H](NC(=O)[C@H](CC(N)=O)NC(=O)[C@H](Cc1ccccc1)NC(=O)[C@H](Cc1ccccc1)NC(=O)[C@H](CCCNC(=N)N)NC(=O)[C@H](CO)NC(=O)[C@H](CC(C)C)NC(=O)[C@H](CC(C)C)NC(=O)[C@H](C)N)C(=O)O [3102.0744] (H-ALLSRFFNM-OH) | 3 nM
CC(C)C[C@H](NC(=O)[C@H](Cc1ccc(O)cc1)NC(=O)[C@@H](NC(=O)[C@H](Cc1ccccc1)NC(=O)[C@H](CCCCN)NC(=O)[C@H](CC(C)C)NC(=O)[C@H](CC(C)C)NC(=O)[C@H](C)NC(=O)[C@@H](N)Cc1ccccc1)[C@@H](C)O)C(=O)O [3102.0745] (H-FALLKFTYL-OH) | 1.6 nM
CC(C)C[C@H](NC(=O)[C@@H](NC(=O)[C@H](CCCCN)NC(=O)[C@H](Cc1ccccc1)NC(=O)[C@H](CCCCN)NC(=O)[C@@H](NC(=O)[C@H](CC(N)=O)NC(=O)[C@H](CC(C)C)NC(=O)[C@@H](N)CO)[C@@H](C)O)[C@@H](C)O)C(=O)O [3102.0746] (H-SLNTKFKTL-OH) | 8.7 nM
CC(C)C[C@H](NC(=O)[C@H](CC(N)=O)NC(=O)[C@@H](NC(=O)[C@H](CC(C)C)NC(=O)[C@H](CCCNC(=N)N)NC(=O)[C@H](CCC(N)=O)NC(=O)[C@H](CCCCN)NC(=O)[C@H](CC(C)C)NC(=O)[C@@H](N)[C@@H](C)O)[C@@H](C)O)C(=O)O [3102.0747] (H-TLKQRLTNL-OH) | 1.7 nM
CSCC[C@H](NC(=O)[C@H](CC(N)=O)NC(=O)[C@@H](N)CCC(=O)O)C(=O)N[C@@H](CC(C)C)C(=O)N[C@@H](CCCNC(=N)N)C(=O)N[C@@H](CO)C(=O)N[C@@H](CCSC)C(=O)N1CCC[C@H]1C(=O)N[C@H](C(=O)O)C(C)C [3102.0748] (H-ENMLRSMPV-OH) | 0.21 nM
CSCC[C@H](NC(=O)[C@H](CCCNC(=N)N)NC(=O)[C@H](Cc1ccccc1)NC(=O)[C@@H]1CCCN1C(=O)[C@H](CCSC)NC(=O)[C@H](CCCCN)NC(=O)[C@H](CC(C)C)NC(=O)[C@@H](N)CC(C)C)C(=O)N[C@H](C(=O)O)C(C)C [3102.0749] (H-LLKMPFRMV-OH) | 7.1 nM
CC(C)C[C@H](NC(=O)[C@@H](NC(=O)[C@H](CO)NC(=O)[C@H](Cc1ccccc1)NC(=O)[C@H](CC(C)C)NC(=O)[C@H](CO)NC(=O)[C@H](CC(C)C)NC(=O)[C@H](CC(C)C)NC(=O)[C@@H](N)Cc1ccc(O)cc1)[C@@H](C)O)C(=O)O [3102.0750] (H-YLLSLFSTL-OH) | 4 nM
CSCC[C@H](N)C(=O)N[C@@H](CC(C)C)C(=O)N[C@@H](CC(C)C)C(=O)N[C@@H](CCCCN)C(=O)N[C@@H](CCCCN)C(=O)N[C@@H](CC(C)C)C(=O)N[C@@H](CC(N)=O)C(=O)N[C@@H](CO)C(=O)N[C@@H](Cc1ccccc1)C(=O)O [3102.0753] (H-MLLKKLNSF-OH) | 0.57 nM
CC(C)C[C@H](NC(=O)[C@H](CO)NC(=O)[C@H](C)NC(=O)[C@H](Cc1ccccc1)NC(=O)[C@H](CCCCN)NC(=O)[C@H](C)NC(=O)[C@H](Cc1ccc(O)cc1)NC(=O)[C@@H](NC(=O)[C@@H](N)[C@@H](C)O)C(C)C)C(=O)O [3102.0754] (H-TVYAKFASL-OH) | 1.6 nM
CC(C)C[C@H](NC(=O)[C@H](CCCNC(=N)N)NC(=O)[C@H](Cc1c[nH]cn1)NC(=O)[C@H](CC(C)C)NC(=O)[C@H](Cc1ccc(O)cc1)NC(=O)[C@H](CCCNC(=N)N)NC(=O)[C@H](CCCNC(=N)N)NC(=O)[C@@H]1CCCN1C(=O)[C@@H](N)CS)C(=O)O [3102.0755] (H-CPRRYLHRL-OH) | 2.7 nM
CC[C@H](C)[C@H](NC(=O)[C@@H](NC(=O)[C@H](C)N)[C@@H](C)O)C(=O)N[C@@H](CCC(N)=O)C(=O)N[C@@H](CCCNC(=N)N)C(=O)N[C@@H](Cc1ccccc1)C(=O)N[C@@H](CO)C(=O)N[C@@H](CO)C(=O)N[C@@H](CC(C)C)C(=O)O [3102.0756] (H-ATIQRFSSL-OH) | 3.3 nM
CC[C@H](C)[C@H](NC(=O)[C@H](Cc1c[nH]cn1)NC(=O)[C@H](C)NC(=O)[C@H](Cc1ccc(O)cc1)NC(=O)[C@H](CC(C)C)NC(=O)[C@@H](N)CC(C)C)C(=O)N[C@@H](CC(N)=O)C(=O)N[C@@H](C)C(=O)N[C@@H](CC(C)C)C(=O)O [3102.0757] (H-LLYAHINAL-OH) | 1.4 nM
N=C(N)NCCC[C@H](NC(=O)[C@H](CCCNC(=N)N)NC(=O)[C@@H](N)CC(=O)O)C(=O)N[C@@H](CO)C(=O)N[C@@H](Cc1ccccc1)C(=O)N[C@@H](Cc1ccccc1)C(=O)N[C@@H](CCCCN)C(=O)N[C@@H](CS)C(=O)N[C@@H](Cc1ccccc1)C(=O)O [3102.0758] (H-DRRSFFKCF-OH) | 76 nM
CC(C)[C@H](NC(=O)[C@H](Cc1ccc(O)cc1)NC(=O)[C@H](CCCNC(=N)N)NC(=O)[C@H](Cc1ccccc1)NC(=O)[C@H](CS)NC(=O)[C@H](CCCCN)NC(=O)[C@H](Cc1ccccc1)NC(=O)[C@@H](N)Cc1ccccc1)C(=O)N[C@@H](Cc1ccccc1)C(=O)O [3102.0760] (H-FFKCFRYVF-OH) | 11 nM
CSCC[C@H](NC(=O)CNC(=O)[C@@H](N)CO)C(=O)N[C@H](C(=O)N[C@@H](Cc1ccccc1)C(=O)N[C@H](C(=O)N[C@@H](CO)C(=O)N1CCC[C@H]1C(=O)N[C@H](C(=O)O)C(C)C)[C@@H](C)O)C(C)C [3102.0762] (H-SGMVFTSPV-OH) | 77 nM
CC(C)C[C@H](NC(=O)[C@@H](N)Cc1c[nH]cn1)C(=O)N[C@@H](CCCCN)C(=O)N[C@@H](Cc1c[nH]cn1)C(=O)N[C@@H](Cc1c[nH]cn1)C(=O)N[C@@H](CCCCN)C(=O)N[C@@H](CCC(N)=O)C(=O)N[C@@H](CS)C(=O)N[C@H](C(=O)O)C(C)C [3102.0763] (H-HLKHHKQCV-OH) | 4.5 nM
CC(C)C[C@H](NC(=O)[C@@H]1CCCN1C(=O)[C@H](CS)NC(=O)[C@H](CCCNC(=N)N)NC(=O)[C@H](CCCNC(=N)N)NC(=O)[C@H](CCCNC(=N)N)NC(=O)[C@H](CC(C)C)NC(=O)[C@H](Cc1ccccc1)NC(=O)[C@@H](N)CC(C)C)C(=O)O [3102.0764] (H-LFLRRRCPL-OH) | 0.13 nM
